Results from patent US9302998B2, “Aryl triazole compounds with antitumoural activity” (SIGMA-TAU RESEARCH SWITZERLAND S.A., priority 2010, dated 2016).

Key:
[1] = system: MDA-MB436 triple-negative breast; assay: Sulphorodamine B test at single concentration, MDA-MB436; assay type: cell-based; conditions: Homo sapiens, MDA-MB-436; 500 nM, 72 h
Description: (§1) The antiproliferative activity of novel Hsp90 inhibitors was also evaluated on various cancerous cell lines by means of the sulphorodamine B test (i.e., NCI-H460 non-small cell lung carcinoma, A431 epidermoid, A2780 ovarian, MDA-MB436 triple-negative breast, U87MG glioblastoma, A498 renal, HCT116 colon, MeWo melanoma, MiaPaCa2 pancreas, HeLa cervix uteri, NB4 promyelocytic leukemia). NCI-H460, A431, MDA-MB436, A2780, A498, HeLa, NB4 tumour cells were grown in RPMI 1640 containing 10% fetal bovine serum (i.e., FBS from GIBCO), L-glutamine, and 50 μg/ml gentamycin sulfate.
(§2) All cell lines were maintained in a 37° C. incubator with saturated humidity and an atmosphere containing 95% air and 5% CO2, and were sub-cultured every 2-3 days. Tumour cells were seeded in 96-well tissue culture plates at approximately 10% confluence and were allowed to attach and recover for 24 h.
(§3) Varying concentrations of the drugs were then added to each well to calculate their IC50 value (the concentration which inhibits the 50% of cell survival). The plates were incubated at 37° C. for 72 h. At the end of the treatment, the plates were washed by remotion of the supernatant and addition of PBS 3 times. 200 μl PBS and 50 μl of cold 80% trichloroacetic acid (TCA) were added. The plates were incubated on ice for at least 1 h. TCA was removed, the plates were washed 3 times by immersion in distilled-water and dried on paper and at 40° C. for […]. Then 200 μl of 0.4% sulphorodamine B in 1% acetic acid were added. The plates were incubated at room temperature for 30 min. Sulphorodamine B was removed, the plates were washed by immersion in 1% acetic acid for 3 times, then they were dried on paper and at 40° C. for 5 min. Then, 200 μl Tris 10 mM were added, the plates were kept under stirring for 20 min. The cell survival was determined as optical density by a Multiskan […] at 540 nm. The amount of cells killed was calculated as the percentage decrease in sulphorodamine B binding compared with control cultures.
(§4) The other cell lines were screened against one single concentration of the various inhibitors (i.e., 500 nM), all experiments being made in octuplicate, following the protocol described at example 35. Since NB4 cell line was grown in suspension, a further step of centrifugation (i.e., 1600 g for 10 min) was added after the 72 hour incubation period.

[2] = system: U87MG glioblastoma; assay: Sulphorodamine B test at single concentration, U87MG; assay type: cell-based; conditions: Homo sapiens, U-87 MG; 500 nM, 72 h
Description: as §1
(§5) MeWo and U87-MG cells were cultured in Eagle's Minimum Essential Medium (i.e., EMEM) containing 10% FBS, L-glutamine, 1 mM sodium pyruvate, 0.1 mM non-essential amino acids, 1.5 g/l sodium bicarbonate, and 50 μg/ml gentamycin sulphate.
as §2, §3, §4

[3] = system: A498 renal; assay: Sulphorodamine B test at single concentration, A498; assay type: cell-based; conditions: Homo sapiens, 500 nM, 72 h
Description: as §1, §2, §3, §4

[4] = system: NCI-H460 non-small cell lung carcinoma; assay: Cytotoxicity assay, sulphorodamine B test, NCI-H460; assay type: cell-based; conditions: Homo sapiens, NCI-H460; 72 h, sulphorodamine B
Description: as §1, §2, §3

[5] = system: MeWo melanoma; assay: Sulphorodamine B test at single concentration, MeWo; assay type: cell-based; conditions: Homo sapiens, 500 nM, 72 h
Description: as §1, §5, §2, §3, §4

[6] = system: HCT116 colon; assay: Sulphorodamine B test at single concentration, HCT116; assay type: cell-based; conditions: Homo sapiens, HCT-116; 500 nM, 72 h
Description: as §1
HCT116 cells were cultured in McCoy's medium containing 10% FBS, L-glutamine, and 50 μg/ml gentamycin sulfate.
as §2, §3, §4

[7] = system: A2780 ovarian; assay: Sulphorodamine B test at single concentration, A2780; assay type: cell-based; conditions: Homo sapiens, 500 nM, 72 h
Description: as §1, §2, §3, §4

[8] = system: A431 epidermoid; assay: Sulphorodamine B test at single concentration, A431; assay type: cell-based; conditions: Homo sapiens, A-431; 500 nM, 72 h
Description: as §1, §2, §3, §4

[9] = system: NB4 promyelocytic leukemia; assay: Sulphorodamine B test at single concentration, NB4; assay type: cell-based; conditions: 500 nM, 72 h, suspension cells
Description: as §1, §2, §3, §4

[10] = system: MiaPaCa2 pancreas; assay: Sulphorodamine B test at single concentration, MiaPaCa2; assay type: cell-based; conditions: Homo sapiens, MIA PaCa-2; 500 nM, 72 h
Description: as §1
MiaPaCa2 cells were cultured in DMEM medium containing 10% FBS, L-glutamine, and 50 μg/ml gentamycin sulfate.
as §2, §3, §4

[11] = molecular target: T1, Hsp90 (Homo sapiens, UniProt P07900); assay: Fluorescence Polarization (FP) binding, GM-BODIPY displacement from Hsp90; conditions: GM-BODIPY tracer, 4° C. for 4 hours
T1 construct: purchased Stressgen SPP-776
Description: GM-BODIPY (PerkinElmer, CUSN60342000MG) was previously dissolved in DMSO to obtain 10 mM stock solutions and kept at −20° C. until use.
Hsp90 (Stressgen, SPP-776), was previously dissolved in assay buffer (HFB) to form 2.2 μM stock solutions and kept at −80° C. until use.
The compounds were previously dissolved in DMSO to obtain stock solutions and kept at −20° C. The day of experiment, the compounds were prepared by serial dilutions in assay buffer (HFB) containing 20 mM HEPES (K) pH 7.3, 50 mM KCl, 5 mM MgCl2, 20 mM Na2MoO4 and 0.01% NP40. Before each use, 0.1 mg/ml Bovine Gamma globulin and 2 mM DTT were freshly added.
Fluorescence Polarization (FP) was performed in Opti-Plate™-96F well plates (Perkin Elmer, Zaventem, Belgium) using a plate reader (Wallac Envision 2101 multilabel reader, Perkin Elmer, Zaventem, Belgium). To evaluate the binding affinity of the molecules, 50 μl of the GM-BODIPY solution (100 nM) were added to 125 nM of Hsp90 in the presence of 5 μl of the test compounds at increasing concentrations. The plate was mixed on a shaker at 4° C. for 4 hours, and the FP values in mP (millipolarization units) were recorded. The IC50 values were calculated as the inhibitor concentration where 50% of the tracer is displaced; each data point is the result of the average of triplicate wells, and was determined from a plot using nonlinear least-squares analysis. Curve fitting was performed using
Prism GraphPad software program (GraphPad software, Inc., San Diego, Calif.).

[12] = system: HeLa cervix uteri; assay: Sulphorodamine B test at single concentration, HeLa; assay type: cell-based; conditions: Homo sapiens, 500 nM, 72 h
Description: as §1, §2, §3, §4

| Structure (SMILES) | IC50 [11] | inhibition at 0.5 µM [1] | inhibition at 0.5 µM [2] | inhibition at 0.5 µM [3] | IC50 [4] | inhibition at 0.5 µM [5] | inhibition at 0.5 µM [6] | inhibition at 0.5 µM [7] | inhibition at 0.5 µM [8] | inhibition at 0.5 µM [9] | inhibition at 0.5 µM [10] | inhibition at 0.5 µM [12] |
| --- | --- | --- | --- | --- | --- | --- | --- | --- | --- | --- | --- | --- |
| CCNC(=O)c1nnn(-c2cc(C(C)C)c(O)cc2O)c1-c1ccc(CN2CCCC(O)C2)cc1 (racemic) [Example 6, (R,S)-1-(2,4-dihydroxy-5-isopropyl-phenyl)-5-[4-(3-hydroxy-piperidin-1-ylmethyl)-phenyl]-1H-[1,2,3]triazole-4-carboxylic acid ethylamide] | < 50 nM | ≥ 50% | ≥ 50% | ≥ 50% | 50 to 100 nM | ≥ 50% | ≥ 50% | ≥ 50% | ≥ 50% | ≥ 50% | ≥ 50% | ≥ 50% |
| CC(C)c1cc(-n2nncc2-c2ccc(CN3CCCC(O)C3)cc2)c(O)cc1O (stereo not shown) [Example 2, 4-{5-[4-(3-hydroxy-piperidin-1-ylmethyl)-phenyl]-[1,2,3]triazol-1-yl}-6-isopropyl-benzene-1,3-diol] | < 50 nM | ≥ 50% | 30 to 50% | 30 to 50% | < 50 nM | ≥ 50% | ≥ 50% | ≥ 50% | ≥ 50% | ≥ 50% | ≥ 50% | ≥ 50% |
| CCNC(=O)c1nnn(-c2cc(C(C)C)c(O)cc2O)c1-c1ccc(CN2CCOCC2)cc1 [Example 5, 1-(2,4-dihydroxy-5-isopropyl-phenyl)-5-(4-morpholin-4-ylmethyl-phenyl)-1H-[1,2,3]triazole-4-carboxylic ethyl amide] | < 50 nM | ≥ 50% | ≥ 50% | ≥ 50% | < 50 nM | ≥ 50% | ≥ 50% | ≥ 50% | ≥ 50% | ≥ 50% | ≥ 50% | ≥ 50% |
| CCNC(=O)c1nnn(-c2cc(C(C)C)c(O)cc2O)c1-c1ccc(CN(CC)CCO)cc1 [Example 7, 1-(2,4-dihydroxy-5-isopropyl-phenyl)-5-(4-{[ethyl-(2-hydroxy-ethyl)-amino]-methyl}-phenyl)-1H-[1,2,3]triazole-4-carboxylic acid ethylamide] | < 50 nM | ≥ 50% | ≥ 50% | ≥ 50% | 50 to 100 nM | ≥ 50% | ≥ 50% | ≥ 50% | ≥ 50% | ≥ 50% | ≥ 50% | ≥ 50% |
| CCNC(=O)c1nnn(-c2cc(C(C)C)c(O)cc2O)c1-c1ccc(CN2CCCCC2CCO)cc1 (stereo not shown) [Example 8, 1-(2,4-dihydroxy-5-isopropyl-phenyl)-5-{4-[2-(2-hydroxy-ethyl)-piperidin-1-ylmethyl]-phenyl}-1H-[1,2,3]triazole-4-carboxylic acid ethylamide] | < 50 nM | ≥ 50% | ≥ 50% | 30 to 50% | 100 to 500 nM | ≥ 50% | ≥ 50% | ≥ 50% | ≥ 50% | ≥ 50% | ≥ 50% | ≥ 50% |

More lines, main results first:

| IC50 [11] | Structure (SMILES) | inhibition at 0.5 µM [1] | inhibition at 0.5 µM [2] | inhibition at 0.5 µM [3] | IC50 [4] | inhibition at 0.5 µM [5] | inhibition at 0.5 µM [6] | inhibition at 0.5 µM [7] | inhibition at 0.5 µM [8] | inhibition at 0.5 µM [9] | inhibition at 0.5 µM [10] | inhibition at 0.5 µM [12] |
| --- | --- | --- | --- | --- | --- | --- | --- | --- | --- | --- | --- | --- |
| < 50 nM | CCNC(=O)c1nnn(-c2cc(C(C)C)c(O)cc2O)c1-c1ccc(CN2CCCCC2)cc1 [Example 9, 1-(2,4-dihydroxy-5-isopropyl-phenyl)-5-(4-piperidin-1-ylmethyl-phenyl)-1H-[1,2,3]triazole-4-carboxylic acid ethylamide] | ≥ 50% | ≥ 50% | ≥ 50% | < 50 nM | ≥ 50% | ≥ 50% | ≥ 50% | ≥ 50% | ≥ 50% | ≥ 50% | ≥ 50% |
| < 50 nM | CCNC(=O)c1nnn(-c2cc(C(C)C)c(O)cc2O)c1-c1ccc(CN2CCN(C)CC2)cc1 [Example 11, 1-(2,4-dihydroxy-5-isopropyl-phenyl)-5-[4-(4-methyl-piperazin-1-ylmethyl)-phenyl]-1H-[1,2,3]triazole-4-carboxylic acid ethylamide] | ≥ 50% | ≥ 50% | ≥ 50% | < 50 nM | ≥ 50% | ≥ 50% | ≥ 50% | ≥ 50% | ≥ 50% | ≥ 50% | ≥ 50% |
| < 50 nM | CCNC(=O)c1nnn(-c2cc(C(C)C)c(O)cc2O)c1-c1ccc(CN2CCCC2)cc1 [Example 21, 1-(2,4-dihydroxy-5-isopropyl-phenyl)-5-(4-pyrrolidin-1-ylmethyl-phenyl)-1H-[1,2,3]triazole-4-carboxylic acid ethylamide] | ≥ 50% | ≥ 50% | ≥ 50% |  | ≥ 50% | ≥ 50% | ≥ 50% | ≥ 50% | ≥ 50% | ≥ 50% | ≥ 50% |
| < 50 nM | CCNC(=O)c1nnn(-c2cc(C(C)C)c(O)cc2O)c1-c1ccc(Cn2ccnc2)cc1 [Example 22, 1-(2,4-dihydroxy-5-isopropyl-phenyl)-5-(4-imidazol-1-ylmethyl-phenyl)-1H-[1,2,3]triazole-4-carboxylic acid ethylamide] | ≥ 50% | ≥ 50% | ≥ 50% |  | ≥ 50% | ≥ 50% | ≥ 50% | ≥ 50% | ≥ 50% | ≥ 50% | ≥ 50% |
